# Experimental data published in ChEMBL document CHEMBL1147604, “Dipeptidyl aspartyl fluoromethylketones as potent caspase-3 inhibitors: SAR of the P2 amino acid” (Bioorg Med Chem Lett, 2004).
# What was measured:
# Caspase-7 = target: T1, Caspase-7 (Homo sapiens, UniProt P55210); test: Compound was evaluated for its inhibitory activity against the Caspase-7 enzyme
# T1 sequence (P55210 whole entry): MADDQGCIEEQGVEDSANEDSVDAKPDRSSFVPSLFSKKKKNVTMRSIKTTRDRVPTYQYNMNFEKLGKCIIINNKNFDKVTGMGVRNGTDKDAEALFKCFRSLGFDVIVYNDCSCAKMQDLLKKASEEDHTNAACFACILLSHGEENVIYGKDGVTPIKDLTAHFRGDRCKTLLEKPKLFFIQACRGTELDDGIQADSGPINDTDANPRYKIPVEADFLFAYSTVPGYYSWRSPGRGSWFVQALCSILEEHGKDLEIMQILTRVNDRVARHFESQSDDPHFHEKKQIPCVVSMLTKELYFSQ
# Caspase-1 = target: T2, Caspase-1 (Homo sapiens, UniProt P29466); test: Compound was evaluated for its inhibitory activity against the Caspase-1 enzyme
# T2 sequence (P29466 whole entry): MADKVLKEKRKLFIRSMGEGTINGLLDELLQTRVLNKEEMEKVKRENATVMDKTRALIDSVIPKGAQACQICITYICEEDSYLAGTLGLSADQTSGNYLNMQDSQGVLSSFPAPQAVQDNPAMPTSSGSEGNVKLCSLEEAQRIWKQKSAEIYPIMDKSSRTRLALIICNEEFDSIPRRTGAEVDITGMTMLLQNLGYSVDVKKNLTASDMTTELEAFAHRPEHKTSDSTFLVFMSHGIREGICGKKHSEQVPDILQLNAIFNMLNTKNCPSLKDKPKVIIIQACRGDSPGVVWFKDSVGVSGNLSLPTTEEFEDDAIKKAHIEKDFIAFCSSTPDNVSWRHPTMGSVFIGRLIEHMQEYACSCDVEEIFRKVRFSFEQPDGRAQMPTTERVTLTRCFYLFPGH
# Caspase-8 = Caspase-8 (Homo sapiens, UniProt Q14790); test: Compound was evaluated for its inhibitory activity against the Caspase-8 enzyme
# Caspase-8, sequence (Q14790 217-374 limits assumed): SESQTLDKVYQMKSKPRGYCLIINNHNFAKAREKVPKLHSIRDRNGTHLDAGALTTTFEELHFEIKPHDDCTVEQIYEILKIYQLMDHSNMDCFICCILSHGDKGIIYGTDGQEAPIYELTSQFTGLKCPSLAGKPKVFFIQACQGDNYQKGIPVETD
# Caspase-8, sequence (Q14790 385-479 limits assumed): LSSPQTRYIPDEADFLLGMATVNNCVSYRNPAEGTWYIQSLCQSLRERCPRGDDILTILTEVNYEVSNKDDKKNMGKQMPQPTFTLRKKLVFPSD
# Prothrombin = Prothrombin (Homo sapiens, UniProt P00734); test: Compound was evaluated for its inhibitory activity against the Thrombin
# Caspase-3 = target: T3, Caspase-3 (Homo sapiens, UniProt P42574); test: Inhibitory activity against human recombinant Caspase-3 enzyme
# T3 sequence (P42574 whole entry): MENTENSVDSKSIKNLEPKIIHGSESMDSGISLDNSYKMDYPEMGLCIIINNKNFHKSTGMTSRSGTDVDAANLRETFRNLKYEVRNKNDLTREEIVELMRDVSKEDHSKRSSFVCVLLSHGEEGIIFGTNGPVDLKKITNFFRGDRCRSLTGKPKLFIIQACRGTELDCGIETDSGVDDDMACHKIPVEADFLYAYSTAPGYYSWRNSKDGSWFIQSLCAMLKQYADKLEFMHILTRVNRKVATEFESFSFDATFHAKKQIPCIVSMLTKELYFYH
# Coagulation factor X = Coagulation factor X (Homo sapiens, UniProt P00742); test: Compound was evaluated for its inhibitory activity against the Coagulation factor X
# Coagulation factor X, sequence (P00742 41-179 limits assumed): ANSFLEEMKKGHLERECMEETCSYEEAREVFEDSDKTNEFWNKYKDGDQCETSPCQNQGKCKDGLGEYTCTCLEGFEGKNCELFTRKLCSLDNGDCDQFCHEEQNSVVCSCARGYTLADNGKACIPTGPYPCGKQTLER
# Coagulation factor X, sequence (P00742 235-488 limits assumed): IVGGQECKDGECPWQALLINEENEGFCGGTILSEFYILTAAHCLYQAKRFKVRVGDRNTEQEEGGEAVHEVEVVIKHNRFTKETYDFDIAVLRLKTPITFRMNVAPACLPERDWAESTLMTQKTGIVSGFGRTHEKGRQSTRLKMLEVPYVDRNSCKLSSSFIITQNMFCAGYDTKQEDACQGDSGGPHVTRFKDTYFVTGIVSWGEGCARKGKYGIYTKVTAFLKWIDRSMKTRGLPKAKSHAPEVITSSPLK
# [1] = target: T4, Calpain-1 catalytic subunit (Homo sapiens, UniProt P07384); test: Compound was evaluated for its inhibitory activity against the Calpain 1 enzyme
# T4 sequence (P07384 whole entry): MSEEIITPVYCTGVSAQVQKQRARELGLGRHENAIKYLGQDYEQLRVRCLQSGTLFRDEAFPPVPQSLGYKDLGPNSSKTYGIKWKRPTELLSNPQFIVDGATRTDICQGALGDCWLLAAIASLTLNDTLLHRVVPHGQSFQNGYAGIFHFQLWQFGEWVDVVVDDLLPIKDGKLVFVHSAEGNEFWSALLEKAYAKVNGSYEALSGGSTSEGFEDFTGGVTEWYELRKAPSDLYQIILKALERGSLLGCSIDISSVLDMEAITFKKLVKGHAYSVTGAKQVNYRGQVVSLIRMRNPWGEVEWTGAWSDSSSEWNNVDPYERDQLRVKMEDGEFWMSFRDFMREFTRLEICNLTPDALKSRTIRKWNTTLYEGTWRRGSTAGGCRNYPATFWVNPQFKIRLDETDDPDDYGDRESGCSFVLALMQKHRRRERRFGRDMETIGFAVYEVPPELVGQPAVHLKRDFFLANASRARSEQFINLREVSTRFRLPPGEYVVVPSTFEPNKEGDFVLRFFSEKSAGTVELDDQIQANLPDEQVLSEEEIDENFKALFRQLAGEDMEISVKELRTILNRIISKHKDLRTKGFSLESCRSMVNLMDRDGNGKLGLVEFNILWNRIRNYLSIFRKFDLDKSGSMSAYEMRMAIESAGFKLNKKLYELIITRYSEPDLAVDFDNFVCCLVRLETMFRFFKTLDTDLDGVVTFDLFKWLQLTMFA
# Caspase-9 = target: T5, Caspase-9 (Homo sapiens, UniProt P55211); test: Compound was evaluated for its inhibitory activity against the Caspase-9 enzyme
# T5 sequence (P55211 whole entry): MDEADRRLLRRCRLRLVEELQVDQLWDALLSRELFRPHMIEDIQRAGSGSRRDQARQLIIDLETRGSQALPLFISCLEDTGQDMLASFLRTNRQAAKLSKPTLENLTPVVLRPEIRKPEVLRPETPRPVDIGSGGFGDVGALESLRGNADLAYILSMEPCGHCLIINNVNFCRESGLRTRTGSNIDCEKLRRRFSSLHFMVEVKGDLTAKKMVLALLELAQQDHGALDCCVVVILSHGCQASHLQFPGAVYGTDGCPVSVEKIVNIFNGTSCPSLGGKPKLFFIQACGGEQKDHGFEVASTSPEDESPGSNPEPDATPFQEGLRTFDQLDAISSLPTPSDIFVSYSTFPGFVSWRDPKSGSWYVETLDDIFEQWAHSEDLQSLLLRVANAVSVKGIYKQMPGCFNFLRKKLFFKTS
# Cathepsin B = Cathepsin B (Homo sapiens, UniProt P07858); test: Compound was evaluated for its inhibitory activity against Cathepsin B
# Caspase-6 = target: T6, Caspase-6 (Homo sapiens, UniProt P55212); test: Compound was evaluated for its inhibitory activity against the Caspase-6 enzyme
# T6 sequence (P55212 whole entry): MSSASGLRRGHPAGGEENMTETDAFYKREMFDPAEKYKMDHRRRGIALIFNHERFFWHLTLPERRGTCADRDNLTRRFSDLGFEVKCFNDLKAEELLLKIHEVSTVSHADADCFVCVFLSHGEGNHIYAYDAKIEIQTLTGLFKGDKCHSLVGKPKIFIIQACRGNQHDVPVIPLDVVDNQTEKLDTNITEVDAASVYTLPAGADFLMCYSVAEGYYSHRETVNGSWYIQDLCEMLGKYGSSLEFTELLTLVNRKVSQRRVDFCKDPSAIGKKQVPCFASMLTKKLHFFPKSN
# [2] = target: T4, Calpain-1 catalytic subunit; test: Compound was evaluated for its inhibitory activity against the Calpain-1 enzyme
IC50 (Caspase-7) [µM],IC50 (Caspase-1) [µM],IC50 (Caspase-8) [µM],IC50 (Prothrombin) [µM],IC50 (Caspase-3) [µM],IC50 (Coagulation factor X) [µM],IC50 [1] [µM],IC50 (Caspase-9) [µM],IC50 (Cathepsin B) [µM],IC50 (Caspase-6) [µM],IC50 [2] [µM],SMILES
0.007,0.02,0.007,> 100,0.03,> 100,> 10,0.005,> 10,0.018,,CC(C)[C@H](NC(=O)OCc1ccccc1)C(=O)NC(CC(=O)O)C(=O)CF (stereo partly specified)
,0.9,,> 100,1.1,> 100,,,0.3,,0.12,COC(=O)CC(NC(=O)[C@@H](NC(=O)OCc1ccccc1)C(C)C)C(=O)CF (stereo partly specified)
